The source of these data is patent publication US12551500B2, “C6′-substituted locked nucleic acid-modified cap analog and use thereof” (Hangzhou Tianlong Pharmaceutical Co., Ltd., priority 2024, dated 2026).

One data set concerns the target T1, DCP2 enzyme (Schizosaccharomyces pombe, UniProt O13828).
T1 construct: purchased New England Biolabs
T1 sequence (O13828 1-243 limits assumed): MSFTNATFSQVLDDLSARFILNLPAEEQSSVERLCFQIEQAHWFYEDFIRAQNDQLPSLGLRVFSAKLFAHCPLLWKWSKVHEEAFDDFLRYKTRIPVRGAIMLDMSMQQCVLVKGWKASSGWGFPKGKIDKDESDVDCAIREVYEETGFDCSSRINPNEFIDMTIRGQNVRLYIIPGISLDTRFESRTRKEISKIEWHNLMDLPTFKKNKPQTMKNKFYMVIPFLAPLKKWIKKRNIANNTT
T1 sequence (Q9P805 1-127 partner): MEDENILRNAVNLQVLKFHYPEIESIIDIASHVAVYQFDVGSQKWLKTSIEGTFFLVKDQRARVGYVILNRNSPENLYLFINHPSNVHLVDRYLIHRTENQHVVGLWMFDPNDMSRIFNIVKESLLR
T1 sequence (Q10108 155-180 partner limits assumed): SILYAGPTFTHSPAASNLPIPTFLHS
Briefly: Decapping enzyme stability test. The data set is classed as biochemical. The settings on record: 30 pmol RNA, 50 U mRNA decapping enzyme, 37° C., 45 minutes. How it is done: 30 pmol of RNAs purified by polyacrylamide gel electrophoresis (PAGE) was subjected to an enzymatic reaction with 50 U of mRNA decapping enzyme (New England Biolabs) and 1×MDE buffer at 37° C. for 45 minutes. The enzymatic reactants were subjected to PAGE and stained with SYBR Green II (Lonza), followed by observation of the post-electrophoresis gel image on a Typhoon FLA 7000 (GE Healthcare) instrument. The electrophoresis band intensity ratio of RNA capping to RNA decapping was counted using ImageQuant (GE Healthcare) software, and the decapping rate of the decapping enzyme was calculated (as shown in Table 6).

Data set [1] in a line: Characterization of lipid nanoparticles encapsulating Fluc-mRNA. It is filed as physicochemical. How it is done:
Cationic lipid YK-009 (Beijing Youcare Kechuang Pharmaceutical Technology Co., Ltd.), DSPC (AVT (Shanghai) Pharmaceutical Technology Co., Ltd.), cholesterol (AVT (Shanghai) Pharmaceutical Technology Co., Ltd.), and DMG-PEG2000 were dissolved in ethanol at a molar ratio of 49:10:39.5:1.5, and the mRNA was diluted in 50 mM citrate buffer (pH=4). The ethanol lipid solution was mixed with the Fluc-mRNA aqueous solution prepared from different cap structures at a volume ratio of 1:3 using a microfluidic device at a flow rate of 10 mL/min to prepare LNPs at a weight ratio of total lipid to mRNA of approximately 15:1. The resulting liposomes were diluted to 10-fold volume with PBS, and then ultrafiltered with a 300 KDa ultrafiltration tube to remove ethanol. The volume was then fixed to a certain volume with PBS. Finally, the LNPs were filtered through a 0.2 μm sterile filter to obtain an LNP preparation encapsulating Fluc-mRNA using YK-009/DSPC/cholesterol/DMG-PEG2000 (at a molar ratio of 49:10:39.5:1.5).
The particle size and polydispersity index (PDI) were determined by dynamic light scattering using a Malvern laser particle size analyzer. 10 μL of the liposome solution was taken, diluted to 1 mL with RNase-free deionized water, and added to a sample pool. Each sample was measured in triplicate. The measurement conditions were: a scattering angle of 90° and a temperature of 25° C. The encapsulation efficiency of LNPs was determined using the Quant-iT RiboGreen RNA Quantification Kit (Thermo Fisher Scientific, UK) according to the manufacturer's instructions.

Data set [2] addresses T2, T7 RNA polymerase (Escherichia phage T7, UniProt P00573). In words: Capping rate of in vitro transcribed mRNA by LC-MS. The data set is classed as biochemical. Particulars: mRNA transcribed with the cap analog, LC-MS. The protocol: (§1) YK-CAP-001 to 006 and compound 14 in Table 1 were respectively used as cap analogs.
(§2) During the experiment, the volume of materials required for the system was first calculated, and then sample addition was conducted. The system was first added with sterile enzyme-free water, followed by the sequential addition of 10× buffer, NTPs, and cap analogs, mixed well, and gently centrifuged. Nuclease inhibitors, inorganic pyrophosphatase, T7 RNA polymerase, and linearized DNA templates were then added thereto. The system was mixed well, gently centrifuged, and incubated at 37° C. After 2 hours of incubation, the system was added with 1 U of DNase I and incubated at 37° C. for another 30 minutes. The mRNA precipitate was then washed with 75% ethanol, and after the ethanol was briefly evaporated to dryness, the mRNA was redissolved in sterile enzyme-free water.
(4) The obtained mRNA was subjected to an annealing reaction with a probe.
The annealing reaction was performed in a PCR instrument: 95° C. for 5 minutes; 65° C. for 2 minutes; 55° C. for 2 minutes; 40° C. for 2 minutes; 22° C. for 2 minutes.
(5) Magnetic bead pretreatment and probe binding: 100 μL of magnetic beads was placed on a magnetic frame for pretreatment. The magnetic bead solution was added with 120 μL of sample and incubated at room temperature for 30 minutes with slow mixing.
(6) mRNA splicing and obtaining the 5′ single-strand sequence bound to the probe
The mixture was added with 20 μL of RNase H (5 U/μL) and incubated at 37° C. for 3 hours with mixing every half hour. After incubation, the magnetic beads were washed and then added with 100 μL of 75% methanol heated to 80° C. The mixture was heated to 80° C. on a heating plate, held for 3 minutes, then placed on a magnetic frame to aspirate the supernatant, and dried at room temperature for 45 minutes to a volume of 10 μL using a centrifugal evaporator. The sample was then resuspended in 50 μL of 100 μM EDTA/1% MeOH and ready for LC-MS analysis to determine the capping of RNA in the transcription reaction. Since there is a significant difference in molecular weight between capped and uncapped bases, the capping rate of mRNA transcription initiated by different cap analogs can be determined based on the difference in molecular mass.

The subject of another data set is BALB/C mice. In words: In vivo imaging of protein expressed by LNP-carrying Fluc-mRNA in mice. Particulars: female BALB/C mice. The protocol:
The LNP preparation containing […] of Fluc-mRNAs transcribed using the cap analogs YK-CAP-001 to 006 in the present disclosure and the cap analogs N-7413, compound 14, and m6A in the prior art was intramuscularly injected into female BALB/C mice aged 4 to 6 weeks and weighing 17 to 19 g. At specific time points after administration (6 hours, 12 hours, 24 hours, 48 hours, 96 hours, and 168 hours), the mice were intraperitoneally injected with fluorescence imaging substrate. The mice were then allowed to move freely for 5 minutes, followed by detection of the average radiation intensity (corresponding to the amount of protein expression) of the protein expressed by LNP-carrying mRNA in the mice using an IVIS Spectrum small-animal in vivo imaging system.

Data set [3] deals with T2, T7 RNA polymerase. Briefly: In vitro transcription yield of mRNA with cap analog (co-transcriptional capping). It is filed as biochemical. Particulars: in vitro transcription, 1 μg DNA template, 20 μL system, 37° C. 2 hours. The protocol: (1) Capping synthesis using cap analogs
The plasmid was first linearized with plasmid linearizing enzyme, and then the linearized plasmid was purified.
(2) In vitro transcription and synthesis of mRNA
as §1, §2
(3) The transcription product was purified, and the in vitro transcription yield of mRNA was recorded.

T2 sequence (P00573 whole entry): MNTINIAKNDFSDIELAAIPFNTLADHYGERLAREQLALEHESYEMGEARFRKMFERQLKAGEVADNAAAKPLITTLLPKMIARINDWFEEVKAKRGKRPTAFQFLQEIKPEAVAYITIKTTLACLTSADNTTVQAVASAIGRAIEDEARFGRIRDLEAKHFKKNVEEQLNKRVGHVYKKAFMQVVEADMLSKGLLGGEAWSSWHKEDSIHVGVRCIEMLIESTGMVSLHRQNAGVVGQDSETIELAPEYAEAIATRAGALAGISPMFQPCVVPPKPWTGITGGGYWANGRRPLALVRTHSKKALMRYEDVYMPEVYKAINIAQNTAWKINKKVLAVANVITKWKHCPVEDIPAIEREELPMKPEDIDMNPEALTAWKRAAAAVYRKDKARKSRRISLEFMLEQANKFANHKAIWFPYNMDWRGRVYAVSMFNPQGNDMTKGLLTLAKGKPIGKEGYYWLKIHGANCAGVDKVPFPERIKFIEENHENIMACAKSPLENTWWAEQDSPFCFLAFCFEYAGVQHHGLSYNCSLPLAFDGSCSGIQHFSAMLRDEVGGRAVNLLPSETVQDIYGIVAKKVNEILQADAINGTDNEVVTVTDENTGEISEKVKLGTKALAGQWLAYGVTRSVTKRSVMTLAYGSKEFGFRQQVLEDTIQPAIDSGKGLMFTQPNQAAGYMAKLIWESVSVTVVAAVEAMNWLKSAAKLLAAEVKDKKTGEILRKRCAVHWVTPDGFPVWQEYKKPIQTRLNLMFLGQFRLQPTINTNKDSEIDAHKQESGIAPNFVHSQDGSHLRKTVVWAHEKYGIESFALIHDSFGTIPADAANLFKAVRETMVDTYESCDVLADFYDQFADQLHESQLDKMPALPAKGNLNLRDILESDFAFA

Turning to `COC1C(OP(=O)([O-])OC[C@H]2O[C@@H](n3cnc4c(=O)[nH]c(N)nc43)C(O)C2O)[C@@H](COP(=O)(O)OP(=O)(O)OP(=O)(O)OC[C@]23O[C@@H]([n+]4cn(C)c5c(=O)[nH]c(N)nc54)C(O[C@H]2CC#N)C3O)O[C@H]1n1cnc2c(N)ncnc21` (stereo partly drawn) [YK-CAP-002], the “Decapping rate (%) of DCP2 enzyme” value on DCP2 enzyme worked out at 24.6%. The compound also gave a Particle size in data set [1] (LNP (YK-009/DSPC/cholesterol/DMG-PEG2000) encapsulating Fluc-mRNA transcribed using the cap analog) of 86.31 nm. Besides, the PDI in data set [1] (LNP encapsulating Fluc-mRNA transcribed using the cap analog) is 0.058. Further, the EE in data set [1] (encapsulation efficiency of LNP encapsulating Fluc-mRNA transcribed using the cap analog) was found to be 93.1%. The compound further gave a Capping rate on T7 RNA polymerase [2] of 70.2%. Also, the Average radiation intensity is reported as 1466925 p/s/cm^2/sr in the data set on BALB/C mice (6 h after intramuscular injection of LNP Fluc-mRNA); 801300 p/s/cm^2/sr in the data set with BALB/C mice (12 h after intramuscular injection of LNP Fluc-mRNA); 278665 p/s/cm^2/sr with BALB/C mice (24 h after intramuscular injection of LNP Fluc-mRNA); 320725 p/s/cm^2/sr in the data set with BALB/C mice (48 h after intramuscular injection of LNP Fluc-mRNA); 20893 p/s/cm^2/sr in the data set on BALB/C mice (96 h after intramuscular injection of LNP Fluc-mRNA); 9768 p/s/cm^2/sr in the data set on BALB/C mice (168 h after intramuscular injection of LNP Fluc-mRNA). The “Yield per unit template” value at T7 RNA polymerase [3] came to 103.1 µg.
